Earlier results, collected in patent US6288033A, “Treatment of hepatitis B infection with thymosin alpha 1 in combination with lamivudine or in combination with lamivudine and famciclovir” (priority 1998, dated 2001).
Read-outs that look alike come from different tables or passages of the source. No end group written: not given here.

How the values were obtained:
[1] = tested on: HBV
[2] = tested on: duck hepatitis B viral replication; conditions: for HBV DNA and DNA polymerase levels: within two days of start, maintained during 21 days; for time viral replication remained suppressed after dosing had stopped: then levels returned to pre-treatment
[3] = tested on: HBV; conditions: 10 day course, 250 mg or 500 mg tid
[4] = not given; remark: listed apart in the source
[5] = tested on: HBV transfected cell lines
[6] = tested on: HBV; conditions: duck model
[7] = tested on: HBV; conditions: chronically infected chimpanzees
[8] = up to 2 years, HIV-infected patients
[9] = tested on: HBV; conditions: 1 microgram/ml
[10] = tested on: HBV; remark: listed apart in the source
[11] = tested on: woodchuck hepatitis virus (WHV)
[12] = tested on: HBV; remark: listed apart in the source
[13] = tested on: anti-HBs; conditions: previously non-reactive hemodialysis patients, after Heptavax-B vaccination
[14] = tested on: hepatitis B virus (HBV)
[15] = North America and European patients

CC(=O)OCC(CCn1cnc2cnc(N)nc21)COC(C)=O [famciclovir, diacetyl ester of 6-deoxypenciclovir]
penciclovir concentration in the blood, Cmax (after a 500 mg oral famciclovir dose): 21.73 microgram/ml | drug-related adverse effects on clinical laboratory values, blood pressure, heart rates or ECG (single and repeat doses up to 1000 mg three times daily for six days): no evidence of drug-related adverse effects | absorption (volunteers, oral): well absorbed | tolerability ([1]; adverse events profile similar to placebo): well tolerated | HBV DNA and ALT levels ([1]; up to 500 mg three times a day for 16 weeks, preliminary data): significant reduction | HBV DNA and DNA polymerase levels ([2]; oral 5 and 25 mg/kg twice a day): undetectable levels | time viral replication remained suppressed after dosing had stopped [2]: at least two days | evaluable patients with a greater than 90% fall in HBV DNA levels [3]: 6 of 11 | frequency of adverse experiences and laboratory abnormalities versus placebo ([4]; 11 double-blind and 2 open trials, more than 3000 patients): similar | most common adverse experiences ([4]; human, in vivo): headache, nausea and diarrhea

Nc1ccn([C@@H]2CS[C@H](CO)O2)c(=O)n1 [lamivudine, 2'3'-dideoxy-3'thiacytidine]
antiviral activity [5]: has been shown | antiviral activity [6]: has been shown | antiviral activity [7]: has been shown | toxicity [8]: without significant toxicity

Nc1nc2c(ncn2CCC(CO)CO)c(=O)[nH]1 [penciclovir]
penciclovir concentration in the blood, Cmax (after a 5 mg/kg oral dose of penciclovir alone): approximately 0.14 microgram/ml | HBV DNA and DNA polymerase levels ([2]; oral 20 and 100 mg/kg twice a day): undetectable levels | time viral replication remained suppressed after dosing had stopped [2]: at least two days | reduction in HBV DNA ([9]; day 6): 50% | reduction in HBV DNA ([9]; day 9): 90%

Thymosin alpha 1 (Ac-SDAAVDTSSEITTKDLKEKKEVVEEAEN; UniProt P06454 2-29, looked up) [Tα1]
CR (complete response), number of patients ([10]; 1.6 mg S.C. 2×/week, 6 months, n=49): 7 patients | CR (%) ([10]; 1.6 mg S.C. 2×/week, 6 months, n=49, p 0.084): 14% | patients with sustained loss of HBV DNA with negative HBeAg, number ([10]; during the 1yr study or post study follow up): 12 patients | patients with sustained loss of HBV DNA with negative HBeAg ([10]; during the 1yr study or post study follow up, p<0.11 vs placebo): 25% | DR (%) ([10]; n=49): 10% | DR (delayed response), number of patients ([10]; n=49): 5 patients | IR (%) ([10]; n=49): 0% | IR (incomplete response), number of patients ([10]; n=49): 0 patients | treated animals with undetectable WHV DNA levels ([11]; 10 μg/Kg s.c. twice weekly, 28 weeks, 6 treated animals, end of treatment): 4 animals | decrease in liver levels of WHV DNA replication intermediates ([11]; liver biopsy, the 4 animals with undetectable serum WHV DNA): 50 to 300 fold | change in liver levels of WHV DNA replication intermediates ([11]; liver biopsy, the other 2 animals): only a small change from the pretreatment levels | depression of WHV DNA levels ([11]; remaining 2 treated animals, end of treatment): 100 fold | serum aminotransferase levels ([12]; conclusion of the study (1 year), 12 patients received TF5 or Tα1 twice weekly for six months): improved significantly | peripheral blood lymphocyte, CD3 and CD4 counts, in vitro production of interferon-gamma over initial values ([12]; in responders to therapy): significant improvements | side effects ([12]; in vivo): No side effects were observed | patients who cleared serum HBV DNA, number ([12]; of 12 treated patients, 1 year): Nine | patients who cleared serum HBV DNA ([12]; of 12 treated patients, 1 year, p<0.004 vs placebo): 75% | responders with sustained remission (normal ALT, negative serum HBV DNA by PCR and HBeAg) ([12]; of the responders): About 78% | safety and efficacy in clearing HBV DNA ([12]; phase II studies, 1.45 to 1.75 mg (adults) per twice-weekly injection): safe and effective in clearing HBV DNA from the blood | in vivo production of anti-HBs [13]: enhance

interferon-alpha
of the HBeAg-clearing patients, clear HBsAg ([14]; Asian patients): approximately 10% | patients who clear HBeAg ([14]; Asian patients): 15-20% | of the HBeAg-clearing patients, ultimately cleared HBsAg [14, 15]: 25-65% | sustained clearance of hepatitis B e antigen (HBeAg), patients [14, 15]: 30-40%
